Source: patent US11793849B2, “Method of Chinese herbal medicine extract used for treating multiple diseases caused by drug resistant bacteria infection” (priority 2016, dated 2023)

Tested on: MDRPA
Experiment: Checkerboard assay (combined-use MIC, FIC)
Format: cell-based, Pseudomonas aeruginosa
Conditions: for FIC, all strains / MIC50 of the antibiotic after combined use / MIC90 of the antibiotic after combined use / reduction of the antibiotic's MIC50 vs single use / reduction of the antibiotic's MIC90 vs single use / share of strains with FIC ≤ 0.5: 20 MDRPAs
Experimental: Test methods of the sensibilization effects of the test product to similar antibiotics: it is operated by referring to a checkerboard assay recommended by NCCLS.
The checkerboard assay is performed in a 96-pore sterile culture plate.
Calculation of a Fractional Inhibitory Concentration (FIC): FIC=S20b combined-use MIC/S20b single-use MIC+antibiotic combined-use MIC/antibiotic single-use MIC. By calculating the FIC, the combined antibacterial interaction between the EA and the antibiotic is evaluated, with synergistic effect for FIC≤0.5, additive effect for 0.5<FIC≤1, indifferent effect for 1<FIC≤2 and antagonistic effect for FIC>2. According to a sterile growth pore, the optimum concentration ratio between the EA and the antibiotic is founded out. At last, the effect of the EA to strengthen the efficacy of the antibiotic is evaluated.

[1] = antibiotic with 10% ethanol extract
[2] = antibiotic with 60% ethanol extract
[3] = antibiotic with 95% ethanol extract
[4] = antibiotic with EA (water extract)

CCN1CCN(C(=O)N[C@@H](C(=O)N[C@@H]2C(=O)N3C(C(=O)O)=C(CSc4nnnn4C)CS[C@H]23)c2ccc(O)cc2)C(=O)C1=O [CFP, Cefoperazone]
20%: share of strains with FIC ≤ 0.5 [2]
75%: reduction of the antibiotic's MIC90 vs single use [3]
4 µg/mL: MIC50 of the antibiotic after combined use [1] | MIC50 of the antibiotic after combined use [2] | MIC50 of the antibiotic after combined use [3] | combined-use MIC (strain P4, EA (P. clypearia 10% ethanol extract) combined with CFP) | combined-use MIC (strain P4, EA (P. clypearia water extract) combined with CFP) | combined-use MIC (strain P11, EA (P. clypearia 10% ethanol extract) combined with CFP) | combined-use MIC (strain P11, EA (P. clypearia water extract) combined with CFP)
128 µg/mL: MIC90 of the antibiotic after combined use [3] | combined-use MIC (strain P2, EA (P. clypearia 10% ethanol extract) combined with CFP) | combined-use MIC (strain P2, EA (P. clypearia water extract) combined with CFP) | combined-use MIC (strain P18, EA (P. clypearia 10% ethanol extract) combined with CFP) | combined-use MIC (strain P18, EA (P. clypearia water extract) combined with CFP)
1 µg/mL: combined-use MIC (strain P20, EA (P. clypearia 10% ethanol extract) combined with CFP)
16 µg/mL: combined-use MIC (strain P7, EA (P. clypearia water extract) combined with CFP) | combined-use MIC (strain P15, EA (P. clypearia water extract) combined with CFP)
32 µg/mL: combined-use MIC (strain P1, EA (P. clypearia 10% ethanol extract) combined with CFP) | combined-use MIC (strain P1, EA (P. clypearia water extract) combined with CFP) | combined-use MIC (strain P9, EA (P. clypearia 10% ethanol extract) combined with CFP) | combined-use MIC (strain P9, EA (P. clypearia water extract) combined with CFP) | combined-use MIC (strain P13, EA (P. clypearia 10% ethanol extract) combined with CFP) | combined-use MIC (strain P13, EA (P. clypearia water extract) combined with CFP)
93.75%: reduction of the antibiotic's MIC50 vs single use [1] | reduction of the antibiotic's MIC50 vs single use [2] | reduction of the antibiotic's MIC50 vs single use [3]
40%: share of strains with FIC ≤ 0.5 [3]
99.2%: reduction of the antibiotic's MIC50 vs single use [4]
≤ 2: FIC, all strains [1] | FIC, all strains [2] | FIC, all strains [3] | FIC, all strains [4]
2 µg/mL: combined-use MIC (strain P3, EA (P. clypearia 10% ethanol extract) combined with CFP) | combined-use MIC (strain P3, EA (P. clypearia water extract) combined with CFP) | combined-use MIC (strain P10, EA (P. clypearia 10% ethanol extract) combined with CFP) | combined-use MIC (strain P12, EA (P. clypearia 10% ethanol extract) combined with CFP)
256 µg/mL: MIC90 of the antibiotic after combined use [1] | MIC90 of the antibiotic after combined use [2] | MIC90 of the antibiotic after combined use [4] | combined-use MIC (strain P5, EA (P. clypearia 10% ethanol extract) combined with CFP) | combined-use MIC (strain P5, EA (P. clypearia water extract) combined with CFP) | combined-use MIC (strain P6, EA (P. clypearia 10% ethanol extract) combined with CFP) | combined-use MIC (strain P6, EA (P. clypearia water extract) combined with CFP) | combined-use MIC (strain P16, EA (P. clypearia 10% ethanol extract) combined with CFP) | combined-use MIC (strain P16, EA (P. clypearia water extract) combined with CFP)
8 µg/mL: combined-use MIC (strain P7, EA (P. clypearia 10% ethanol extract) combined with CFP) | combined-use MIC (strain P15, EA (P. clypearia 10% ethanol extract) combined with CFP)
50%: reduction of the antibiotic's MIC90 vs single use [1] | reduction of the antibiotic's MIC90 vs single use [2] | reduction of the antibiotic's MIC90 vs single use [4]
0.25 µg/mL: combined-use MIC (strain P14, EA (P. clypearia 10% ethanol extract) combined with CFP)
0.5 µg/mL: MIC50 of the antibiotic after combined use [4] | combined-use MIC (strain P8, EA (P. clypearia 10% ethanol extract) combined with CFP) | combined-use MIC (strain P8, EA (P. clypearia water extract) combined with CFP) | combined-use MIC (strain P10, EA (P. clypearia water extract) combined with CFP) | combined-use MIC (strain P12, EA (P. clypearia water extract) combined with CFP) | combined-use MIC (strain P14, EA (P. clypearia water extract) combined with CFP) | combined-use MIC (strain P17, EA (P. clypearia 10% ethanol extract) combined with CFP) | combined-use MIC (strain P17, EA (P. clypearia water extract) combined with CFP) | combined-use MIC (strain P19, EA (P. clypearia 10% ethanol extract) combined with CFP) | combined-use MIC (strain P19, EA (P. clypearia water extract) combined with CFP) | combined-use MIC (strain P20, EA (P. clypearia water extract) combined with CFP)
35%: share of strains with FIC ≤ 0.5 [1] | share of strains with FIC ≤ 0.5 [4]
